System: HT-1080 (ATCC, CCL-121) cells
Assay: HT-1080 cell viability assay with ferroptosis inducer RSL3 (Cell Titer-Glo)
Format: cell-based
Settings: Homo sapiens; HT-1080 cells treated with RSL3; 3-fold, 10-point dilution, 1.1 μM highest concentration; Table 2; read-out: EC50 (nM), ferroptosis inhibitory activity
Protocol: Example 2. Determination of EC50 Values in HT-1080 Cell Viability Assay
HT-1080 (ATCC, CCL-121) cells (6000 in 100 μl) were seeded in 96-well plates (Corning) and cultured in a 37° C. incubator with a humidified atmosphere of 5% CO2 for overnight. Cells were then treated with ferroptosis inducer RSL3 (TargetMol) and a 3-fold, 10-point serial dilution series of compounds with 1.1 μM as the highest concentration, […]. Cell viability was assessed using the Cell Titer-Glo Kit (Promega). The luminescence intensity was measured with a microplate reader (Envision, PerkinElmer), and cell viability was calculated by normalizing the data to untreated controls. The EC50 values of the compounds (e.g., Compounds 1-659) were calculated in GraphPad Prism (GraphPad Software, Inc., San Diego, CA, USA). The curves were fitted using a non-linear regression model with a sigmoidal dose response.

| Compound | EC50 |
| --- | --- |
| CN1C(=O)COc2cc(Nc3ccc4cc(N5CCC(C(F)(F)F)CC5)ccc4c3)ccc21 [Compound 72, 4-methyl-7-((6-(4-(trifluoromethyl)piperidin-1-yl)naphthalen-2-yl)amino)-2H-benzo[b][1,4]oxazin-3(4H)-one] | 0.1 to 100 nM |
| CC1CN(c2ccc(Nc3ccc4c(c3)OCC(=O)N4C)cc2F)CC(C)O1 (stereo not shown) [Compound 73, 7-((4-(2,6-dimethylmorpholino)-3-fluorophenyl)amino)-4-methyl-2H-benzo[b][1,4]oxazin-3(4H)-one] | 0.1 to 100 nM |
| CC1CN(c2ccc(Nc3ccc4c(c3)OCC(=O)N4C)c(F)c2)CC(C)O1 (stereo not shown) [Compound 74, 7-((4-(2,6-dimethylmorpholino)-2-fluorophenyl)amino)-4-methyl-2H-benzo[b][1,4]oxazin-3(4H)-one] | 0.1 to 100 nM |
| CN1C(=O)COc2cc(Nc3ccc(N4CCC(C(F)(F)F)CC4)cc3)cnc21 [Compound 75, 4-methyl-7-((4-(4-(trifluoromethyl)piperidin-1-yl)phenyl)amino)-2H-pyrido[3,2-b][1,4]oxazin-3(4H)-one] | 0.1 to 100 nM |
| CC1CN(c2ccc(Nc3cnc4c(c3)OCC(=O)N4C)cc2)CC(C)O1 (stereo not shown) [Compound 76, 7-((4-(2,6-dimethylmorpholino)phenyl)amino)-4-methyl-2H-pyrido[3,2-b][1,4]oxazin-3(4H)-one] | 0.1 to 100 nM |
| CN1C(=O)COc2cc(Nc3ccc(N4CCC(C(F)(F)F)CC4)c(F)c3)ccc21 [Compound 77, 7-((3-fluoro-4-(4-(trifluoromethyl)piperidin-1-yl)phenyl)amino)-4-methyl-2H-benzo[b][1,4]oxazin-3(4H)-one] | 0.1 to 100 nM |
| Cc1cc(N2CCC(C(F)(F)F)CC2)ccc1Nc1ccc2c(c1)OCC(=O)N2C [Compound 78, 4-methyl-7-((2-methyl-4-(4-(trifluoromethyl)piperidin-1-yl)phenyl)amino)-2H-benzo[b][1,4]oxazin-3(4H)-one] | 0.1 to 100 nM |
| Cc1cc(N2CCC(C(F)(F)F)CC2)cc(C)c1Nc1ccc2c(c1)OCC(=O)N2C [Compound 79, 7-((2,6-dimethyl-4-(4-(trifluoromethyl)piperidin-1-yl)phenyl)amino)-4-methyl-2H-benzo[b][1,4]oxazin-3(4H)-one] | 0.1 to 100 nM |
| CC1CN(c2ccc(Nc3ccc4c(c3)OCC(=O)N4CCN(C)C)cc2)CC(C)O1 (stereo not shown) [Compound 80, 4-(2-(dimethylamino)ethyl)-7-((4-(2,6-dimethylmorpholino)phenyl)amino)-2H-benzo[b][1,4]oxazin-3(4H)-one] | 0.1 to 100 nM |
| CCC1Oc2cc(Nc3ccc(N4CC(C)OC(C)C4)cc3)ccc2N(C)C1=O (stereo not shown) [Compound 81, 7-((4-(2,6-dimethylmorpholino)phenyl)amino)-2-ethyl-4-methyl-2H-benzo[b][1,4]oxazin-3(4H)-one] | 0.1 to 100 nM |
| CC(C)(C)c1ccc(Nc2ccc3c(c2)OCC(=O)N3CCO)cc1 [Compound 82, 7-((4-(tert-butyl)phenyl)amino)-4-(2-hydroxyethyl)-2H-benzo[b][1,4]oxazin-3(4H)-one] | 0.1 to 100 nM |
| O=C1COc2cc(Nc3ccc(N4CCC(C(F)(F)F)CC4)cc3)ccc2N1CCO [Compound 83] | 0.1 to 100 nM |
| CC1CN(c2ccc(Nc3ccc4c(c3)OCC(=O)N4CCO)cc2)CC(C)O1 (stereo not shown) [Compound 84, 7-((4-(2,6-dimethylmorpholino)phenyl)amino)-4-(2-hydroxyethyl)-2H-benzo[b][1,4]oxazin-3(4H)-one] | 0.1 to 100 nM |
| O=C1COc2cc(Nc3ccc(N4CCC(C(F)(F)F)CC4)cc3)ccc2N1 [Compound 85, 7-((4-(4-(trifluoromethyl)piperidin-1-yl)phenyl)amino)-2H-benzo[b][1,4]oxazin-3(4H)-one] | 0.1 to 100 nM |
| Cc1cc(Nc2ccc3c(c2)OCC(=O)N3C)ccc1N1CCC(C(F)(F)F)CC1 [Compound 86, 4-methyl-7-((3-methyl-4-(4-(trifluoromethyl)piperidin-1-yl)phenyl)amino)-2H-benzo[b][1,4]oxazin-3(4H)-one] | 0.1 to 100 nM |
| CN(C)CCN1C(=O)COc2cc(Nc3ccc(N4CCC(C(F)(F)F)CC4)cc3)ccc21 [Compound 94, 4-(2-(dimethylamino)ethyl)-7-((4-(4-(trifluoromethyl)piperidin-1-yl)phenyl)amino)-2H-benzo[b][1,4]oxazin-3(4H)-one] | 0.1 to 100 nM |
| CN1C(=O)COc2cc(Nc3ccc(N4CC5CC(C4)O5)c(F)c3)ccc21 [Compound 99, 7-((4-(6-oxa-3-azabicyclo[3.1.1]heptan-3-yl)-3-fluorophenyl)amino)-4-methyl-2H-benzo[b][1,4]oxazin-3(4H)-one] | 0.1 to 100 nM |

Further lines, results first:

| EC50 | Compound |
| --- | --- |
| 0.1 to 100 nM | CC1CN(c2ccc(Nc3cc(F)c4c(c3)OCC(=O)N4C)cc2)CC(C)O1 (stereo not shown) [Compound 87, 7-((4-(2,6-dimethylmorpholino)phenyl)amino)-5-fluoro-4-methyl-2H-benzo[b][1,4]oxazin-3(4H)-one] |
| 0.1 to 100 nM | CN1C(=O)COc2cc(Nc3ccc(N4CCC(C(F)(F)F)CC4)cc3)cc(F)c21 [Compound 88, 5-fluoro-4-methyl-7-((4-(4-(trifluoromethyl)piperidin-1-yl)phenyl)amino)-2H-benzo[b][1,4]oxazin-3(4H)-one] |
| 0.1 to 100 nM | CN1C(=O)COc2cc(Nc3ccc(N4CC5CCC(C4)O5)c(F)c3)ccc21 [Compound 89, 7-((4-(8-oxa-3-azabicyclo[3.2.1]octan-3-yl)-3-fluorophenyl)amino)-4-methyl-2H-benzo[b][1,4]oxazin-3(4H)-one] |
| 0.1 to 100 nM | COc1cc(N2CCC(C(F)(F)F)CC2)ccc1Nc1ccc2c(c1)OCC(=O)N2C [Compound 90, 7-((2-methoxy-4-(4-(trifluoromethyl)piperidin-1-yl)phenyl)amino)-4-methyl-2H-benzo[b][1,4]oxazin-3(4H)-one] |
| 0.1 to 100 nM | COc1cc(Nc2ccc3c(c2)OCC(=O)N3C)ccc1N1CCC(C(F)(F)F)CC1 [Compound 91, 7-((3-methoxy-4-(4-(trifluoromethyl)piperidin-1-yl)phenyl)amino)-4-methyl-2H-benzo[b][1,4]oxazin-3(4H)-one] |
| 0.1 to 100 nM | CC1CC(c2ccc(Nc3ccc4c(c3)OCC(=O)N4)cc2)CC(C)O1 (stereo not shown) [Compound 92, 7-((4-(2,6-dimethyltetrahydro-2H-pyran-4-yl)phenyl)amino)-2H-benzo[b][1,4]oxazin-3(4H)-one] |
| 0.1 to 100 nM | CN1C(=O)COc2cc(Nc3ccc(N4CC(C)(C)OC(C)(C)C4)cc3)ccc21 [Compound 93, 4-methyl-7-((4-(2,2,6,6-tetramethylmorpholino)phenyl)amino)-2H-benzo[b][1,4]oxazin-3(4H)-one] |
| 0.1 to 100 nM | COCCN1C(=O)COc2cc(Nc3ccc(N4CC(C)OC(C)C4)cc3)ccc21 (stereo not shown) [Compound 95, 7-((4-(2,6-dimethylmorpholino)phenyl)amino)-4-(2-methoxyethyl)-2H-benzo[b][1,4]oxazin-3(4H)-one] |
| 0.1 to 100 nM | Cc1cc(N2CC(C)OC(C)C2)ccc1Nc1ccc2c(c1)OCC(=O)N2 (stereo not shown) [Compound 96] |
| 0.1 to 100 nM | CN1C(=O)COc2cc(Nc3ccc(N4C[C@@H]5C[C@H]4CO5)c(F)c3)ccc21 [Compound 97, 7-((4-((1S,4S)-2-oxa-5-azabicyclo[2.2.1]heptan-5-yl)-3-fluorophenyl)amino)-4-methyl-2H-benzo[b][1,4]oxazin-3(4H)-one] |
| 0.1 to 100 nM | CN1C(=O)COc2cc(Nc3ccc(N4CC5CCC4CO5)c(F)c3)ccc21 (stereo not shown) [Compound 98, 7-((4-(2-oxa-5-azabicyclo[2.2.2]octan-5-yl)-3-fluorophenyl)amino)-4-methyl-2H-benzo[b][1,4]oxazin-3(4H)-one] |

Reference: patent US20240327393A1 (SIRONAX LTD., priority 2021, published 2024)
